Measured values published in patent US11530244B2, “Cyclic polypeptides for PCSK9 inhibition” (priority 2018, dated 2022).
Counter-ions that a name gives are not always drawn. Starred links: 1 amine or outer side, 2 acyl side, 3 side chain; linkers in the order of their positions; H or OH if unused. Positions of bridges follow the written chain, without caps; N, C: chain ends. Non-standard residues stand in square brackets, D forms with d. Residues, ends and D or L forms follow the SMILES beside them. Groups on a side chain read outwards from the residue. *: point of attachment. X50 = C[C@@H](N[*:1])C(=O)C[C@@H](Cc1c[nH]c2ccc(F)cc12)C(=O)[*:2]; Phe(3-CH2NH2) = O=C([C@H](Cc1cccc(CN[*:3])c1)N[*:1])[*:2]; X1 = O=C1CC[C@@H](C(=O)[*:1])N1CCCSCc1cccc(C[*:2])c1; Ala(imidazol-2-yl) = N[C@@H](Cc1ncc[nH]1)C(=O)O; Trp(5-F) = N[C@@H](Cc1c[nH]c2ccc(F)cc12)C(=O)O; X49 = NCCCC[C@H](N[*:1])c1nc(C(=O)[*:2])co1; X3 = O=C(CCSCc1cc(F)cc(CSCCN[*:1])c1)[*:2]; Pro(cis-4-F) = O=C(O)[C@@H]1C[C@H](F)CN1; γGlu = O=C(O)[C@H](CCC(=O)[*:2])N[*:1]; mXylylene = c1cc(C[*:1])cc(C[*:2])c1; AEF = NCCOc1ccc(C[C@H](N)C(=O)O)cc1; Lys(Me2) = CN(C)CCCC[C@H](N)C(=O)O; Palmitoyl = CCCCCCCCCCCCCCCC(=O)*; X46 = O=C(C[*:2])NCCCCC(=O)[*:1]; X44 = O=C(C[*:2])NCCCC(=O)[*:1]; αMeP = C[C@@]1(C(=O)O)CCCN1; Isobutyryl = CC(C)C(=O)*; AEEA = NCCOCCOCC(=O)O; Propionyl = CCC(=O)*; Tfa = O=C(C(F)(F)F)*; X28 = CC(C)(F)C(=O)*; X37 = O=C(CC1CC1)*; Mpa = O=C(O)CCS

Key:
PCSK9 [1] = target: T1, PCSK9 (Homo sapiens (Human), UniProt Q8NBP7); assay: PCSK9 Alexa FRET Standard assay (displacement of AlexaFluor647 tagged cyclic peptide Reagent A); type: binding; settings: PCSK9 Alexa FRET Standard assay, 0.5 nM PCSK9, 20 nM AF cyclic peptide Reagent A; read-out: IC50
Outline: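 TR-FRET displacement: 0.5 nM biotinylated PCSK9 with 1.25 nM Strep-Eu and 20 nM AlexaFluor-tagged cyclic peptide (final) in 50 mM HEPES pH 7.4, 0.15 M NaCl, 5 mM CaCl2, 0.01% BSA, 0.01% P20, ≥2 h at room temperature. IC50 from sigmoidal fit, converted to Ki via peptide KD; falling Eu counts flagged false positives.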

PCSK9 [2] = target: T1, PCSK9; assay: PCSK9 Alexa FRET Plus assay (displacement of AlexaFluor647 tagged cyclic peptide Reagent B); type: binding; settings: Alexa FRET Plus, 0.5 nM PCSK9, 960 nM AF cyclic peptide Reagent B; read-out: IC50
Protocol: A solution containing 1 nM biotinylated PCSK9+2.5 nM Lance Streptavidin Europium (Strep-Eu) was made in 50 mM HEPES pH 7.4, 0.15 M NaCl, 5 mM CaCl2), 0.01% BSA, and 0.01% Surfactant P20. A separate solution containing 1920 nM of the AlexaFluor tagged cyclic peptide was made in the same buffer system. An Echo was used to transfer 0.075 ul of compound plus 0.675 ul of DMSO to each well of an assay plate followed by the addition of 15 ul of PCSK9+Stept-Eu and 15 ul of AF peptide. The final assay volume was 30.750 ul containing 0.5 nM PCSK9, 1.25 nM Strep-Eu, and 960 nM AF cyclic peptide. The reaction was incubated at room temperature for at least two hours prior to fluorescence measurements using an Envision Multilabel Reader. IC50 values were determined by fitting data to a sigmoidal dose-response curve using nonlinear regression. Ki was then calculated from the IC50 and the KD of AF cyclic peptide. Counts (B-counts) of the europium-labeled PCSK9 were followed to observe if compounds were adversely affecting PCSK9. A fall off of the B-counts likely indicated a false positive of inhibition. Data from this procedure was reported as “P=‘numerical value’ (nanomolar)”

T1 sequence (Q8NBP7 153-692): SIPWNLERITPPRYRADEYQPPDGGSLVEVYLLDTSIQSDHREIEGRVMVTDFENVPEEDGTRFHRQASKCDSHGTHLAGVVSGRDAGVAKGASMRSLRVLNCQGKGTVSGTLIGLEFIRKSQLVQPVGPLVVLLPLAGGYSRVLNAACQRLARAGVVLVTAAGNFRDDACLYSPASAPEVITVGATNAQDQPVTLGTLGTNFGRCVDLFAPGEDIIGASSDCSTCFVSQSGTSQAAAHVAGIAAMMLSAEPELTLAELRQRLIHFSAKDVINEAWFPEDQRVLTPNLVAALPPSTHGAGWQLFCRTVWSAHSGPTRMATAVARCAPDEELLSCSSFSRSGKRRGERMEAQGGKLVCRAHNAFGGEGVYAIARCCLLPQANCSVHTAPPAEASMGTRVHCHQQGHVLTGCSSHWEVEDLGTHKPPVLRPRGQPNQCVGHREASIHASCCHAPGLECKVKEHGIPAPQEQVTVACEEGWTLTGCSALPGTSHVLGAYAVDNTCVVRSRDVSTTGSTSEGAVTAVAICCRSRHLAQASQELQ

IC50 (PCSK9 [1]) | IC50 (PCSK9 [2]) | Structure (SMILES)
0.11 to 100 nM | 100 to 500 nM | CCCCCCCCCCCCCCCC(=O)N[C@@H](CCC(=O)NCCOCCOCC(=O)NCCOCCOCC(=O)NCc1cccc(C[C@@H]2NC(=O)[C@@H](C)NC(=O)[C@H](CCCCN)NC(=O)CCSCc3cccc(c3)CSC[C@@H](C(N)=O)NC(=O)[C@]3(C)CCCN3C(=O)[C@H](Cc3ccc(O)cc3)NC(=O)[C@H](Cc3cnc[nH]3)NC(=O)[C@H](CC(=O)O)NC(=O)[C@H](Cc3c[nH]c4ccc(F)cc34)NC2=O)c1)C(=O)O [Compound 454] ([Mpa]K[dA][Phe(3-CH2NH2)]([AEEA-AEEA-γGlu-Palmitoyl])[Trp(5-F)]DHY[αMeP]C-NH2; linker 1-10 via mXylylene)
1000 to 12100 nM | 500 to 5000 nM | C[C@@]12CCCN1C(=O)[C@H](Cc1ccc(O)cc1)NC(=O)[C@H](Cc1c[nH]cn1)NC(=O)[C@H](CC(=O)O)NC(=O)[C@H](Cc1c[nH]c3ccc(F)cc13)NC(=O)[C@H](Cc1c[nH]c3ccc(F)cc13)NC(=O)c1coc(n1)[C@H](CCCCN)NC(=O)CCSCc1cccc(c1)CSC[C@@H](C(N)=O)NC2=O [Compound 477] ([Mpa][X49][Trp(5-F)][Trp(5-F)]DHY[αMeP]C-NH2; linker 1-9 via mXylylene)
1000 to 12100 nM | 500 to 5000 nM | C[C@@]12CCCN1C(=O)[C@H](Cc1ccc(O)cc1)NC(=O)[C@H](Cc1c[nH]cn1)NC(=O)[C@H](CC(=O)O)NC(=O)[C@H](Cc1c[nH]c3ccc(F)cc13)NC(=O)[C@H](Cc1c[nH]c3ccc(F)cc13)NC(=O)CNC(=O)[C@@H]1CCC(=O)N1CCCSCc1cccc(c1)CSC[C@@H](C(N)=O)NC2=O [Compound 481] (G[Trp(5-F)][Trp(5-F)]DHY[αMeP]C-NH2; linker N-8 via X1)
0.11 to 100 nM | 100 to 500 nM | CC(=O)N[C@@H]1CCCC/C=C\CO[C@H]2C[C@@H](C(N)=O)N(C2)C(=O)[C@H](Cc2ccc(O)cc2)NC(=O)[C@H](Cc2cnc[nH]2)NC(=O)[C@H](CC(=O)O)NC(=O)[C@H](Cc2c[nH]c3ccc(F)cc23)NC(=O)[C@H](Cc2c[nH]c3ccc(F)cc23)NC(=O)CNC1=O [Compound 422]
100 to 1000 nM | 100 to 500 nM | CC(=O)N[C@@H]1CCC/C=C/CO[C@H]2C[C@@H](C(N)=O)N(C2)C(=O)[C@H](Cc2ccc(O)cc2)NC(=O)[C@H](Cc2cnc[nH]2)NC(=O)[C@H](CC(=O)O)NC(=O)[C@H](Cc2c[nH]c3ccc(F)cc23)NC(=O)[C@H](Cc2c[nH]c3ccc(F)cc23)NC(=O)CNC1=O [Compound 420]
100 to 1000 nM | 500 to 5000 nM | COc1ccc(C[C@@H]2NC(=O)[C@H](Cc3ncc[nH]3)NC(=O)[C@H](CC(=O)O)NC(=O)[C@H](Cc3c[nH]c4ccc(F)cc34)NC(=O)[C@H](Cc3c[nH]c4ccc(F)cc34)NC(=O)[C@@H](C)NC(=O)[C@H](CCCCN(C)C)NC(=O)CCSCc3cc(F)cc(c3)CSCCNC(=O)[C@]3(C)CCCN3C2=O)cc1 [Compound 466] (cyclo(D[Ala(imidazol-2-yl)]Y(Me)[αMeP][X3][Lys(Me2)][dA][Trp(5-F)][Trp(5-F)]))

Continued, molecule first:

Structure (SMILES) | IC50 (PCSK9 [1]) | IC50 (PCSK9 [2])
COc1ccc(C[C@@H]2NC(=O)[C@H]([C@@H](C)O)NC(=O)[C@@H]3C[C@H](F)CN3C(=O)[C@H](Cc3c[nH]c4ccc(F)cc34)NC(=O)[C@H](Cc3c[nH]c4ccc(F)cc34)NC(=O)[C@@H](C)NC(=O)[C@H](CCCCN)NC(=O)CCCCNC(=O)COc3ccc(cc3)C[C@@H](C(N)=O)NC(=O)[C@]3(C)CCCN3C2=O)cc1 [Compound 117] (K[dA][Trp(5-F)][Trp(5-F)][Pro(cis-4-F)]TY(Me)[αMeP]Y-NH2; linker N-9 via X46) | 0.11 to 100 nM | 500 to 5000 nM
COc1ccc(C[C@@H]2NC(=O)[C@H]([C@@H](C)O)NC(=O)[C@@H]3C[C@H](F)CN3C(=O)[C@H](Cc3c[nH]c4ccc(F)cc34)NC(=O)[C@H](Cc3c[nH]c4ccc(F)cc34)NC(=O)[C@@H](C)NC(=O)[C@H](CCCCN)NC(=O)[C@@H](NC(=O)CC3CC3)CC(=O)NCCOc3ccc(cc3)C[C@@H](C(N)=O)NC(=O)[C@]3(C)CCCN3C2=O)cc1 [Compound 108] (X37-DK[dA][Trp(5-F)][Trp(5-F)][Pro(cis-4-F)]TY(Me)[αMeP][AEF]-NH2; lactam 1-10) | 0.11 to 100 nM | 500 to 5000 nM
CCC(=O)N[C@H]1CC(=O)NCCOc2ccc(cc2)C[C@@H](C(N)=O)NC(=O)[C@]2(C)CCCN2C(=O)[C@H](Cc2ccc(OC)cc2)NC(=O)[C@H]([C@@H](C)O)NC(=O)[C@@H]2C[C@H](F)CN2C(=O)[C@H](Cc2c[nH]c3ccc(F)cc23)NC(=O)[C@H](Cc2c[nH]c3ccc(F)cc23)NC(=O)[C@@H](C)NC(=O)[C@H](CCCCN)NC1=O [Compound 118] (Propionyl-DK[dA][Trp(5-F)][Trp(5-F)][Pro(cis-4-F)]TY(Me)[αMeP][AEF]-NH2; lactam 1-10) | 21000 to 50000 nM | 500 to 5000 nM
CCCCCCCCCCCCCCCC(=O)N[C@@H](CCC(=O)NCCOCCOCC(=O)NCCOCCOCC(=O)NCCCC[C@H](NC(C)=O)C(=O)NCCOCCOCC(=O)N[C@@H]1CSCc2cccc(c2)CSC[C@@H](C(N)=O)NC(=O)[C@]2(C)CCCN2C(=O)[C@H](Cc2ccc(O)cc2)NC(=O)[C@H]([C@@H](C)O)NC(=O)N2C[C@@H](F)C[C@H]2C(=O)[C@H](Cc2c[nH]c3ccc(F)cc23)NC(=O)[C@H](Cc2c[nH]c3ccc(F)cc23)NC(=O)[C@@H](C)NC(=O)[C@H](C)NC1=O)C(=O)O [Compound 135] | 0.11 to 100 nM | 0.1 to 100 nM
COc1ccc(C[C@@H]2NC(=O)[C@H]([C@@H](C)O)NC(=O)[C@@H]3C[C@H](F)CN3C(=O)[C@H](Cc3c[nH]c4ccc(F)cc34)NC(=O)[C@H](Cc3c[nH]c4ccc(F)cc34)NC(=O)[C@@H](C)NC(=O)[C@H](CCCCN)NC(=O)CCCNC(=O)COc3ccc(cc3)C[C@@H](C(N)=O)NC(=O)[C@]3(C)CCCN3C2=O)cc1 [Compound 092] (K[dA][Trp(5-F)][Trp(5-F)][Pro(cis-4-F)]TY(Me)[αMeP]Y-NH2; linker N-9 via X44) | 0.11 to 100 nM | 0.1 to 100 nM
COc1ccc(C[C@@H]2NC(=O)[C@H]([C@@H](C)O)NC(=O)[C@@H]3C[C@H](F)CN3C(=O)[C@H](Cc3c[nH]c4ccc(F)cc34)NC(=O)[C@H](Cc3c[nH]c4ccc(F)cc34)NC(=O)[C@@H](C)NC(=O)[C@H](CCCCN)NC(=O)[C@@H](NC(=O)C(F)(F)F)CC(=O)NCCOc3ccc(cc3)C[C@@H](C(N)=O)NC(=O)[C@]3(C)CCCN3C2=O)cc1 [Compound 124] (Tfa-DK[dA][Trp(5-F)][Trp(5-F)][Pro(cis-4-F)]TY(Me)[αMeP][AEF]-NH2; lactam 1-10) | 0.11 to 100 nM | 0.1 to 100 nM
COc1ccc(C[C@@H]2NC(=O)[C@H]([C@@H](C)O)NC(=O)[C@@H]3C[C@H](F)CN3C(=O)[C@H](Cc3c[nH]c4ccc(F)cc34)NC(=O)[C@H](Cc3c[nH]c4ccc(F)cc34)NC(=O)[C@@H](C)NC(=O)[C@H](CCCCN)NC(=O)[C@@H](NC(=O)C(C)C)CC(=O)NCCOc3ccc(cc3)C[C@@H](C(N)=O)NC(=O)[C@]3(C)CCCN3C2=O)cc1 [Compound 123] (Isobutyryl-DK[dA][Trp(5-F)][Trp(5-F)][Pro(cis-4-F)]TY(Me)[αMeP][AEF]-NH2; lactam 1-10) | 0.11 to 100 nM | 0.1 to 100 nM
CCCCCCCCCCCCCCCC(=O)N[C@@H](CCC(=O)NCCOCCOCC(=O)NCCOCCOCC(=O)NCCCC[C@@H]1NC(=O)[C@H](Cc2c[nH]c3ccc(F)cc23)NC(=O)[C@H](Cc2c[nH]c3ccc(F)cc23)CC(=O)[C@@H](C)NC(=O)[C@H](CCCCN)NC(=O)CCSCc2cccc(c2)CSC[C@@H](C(N)=O)NC(=O)[C@]2(C)CCCN2C(=O)[C@H](Cc2ccc(O)cc2)NC(=O)[C@H]([C@@H](C)O)NC1=O)C(=O)O [Compound 101] ([Mpa]K[X50][Trp(5-F)]K([AEEA-AEEA-γGlu-Palmitoyl])TY[αMeP]C-NH2; linker 1-9 via mXylylene) | 0.11 to 100 nM | 100 to 500 nM
C[C@@]12CCCN1C(=O)[C@H](Cc1ccc(O)cc1)NC(=O)CN1C(=O)[C@H](COc3ccccc31)NC(=O)[C@H](Cc1c[nH]c3ccc(F)cc13)NC(=O)[C@H](Cc1c[nH]c3ccc(F)cc13)NC(=O)CNC(=O)[C@H](CCCCN)NC(=O)CCSCc1cccc(c1)CSC[C@@H](C(N)=O)NC2=O [Compound 126] | 0.11 to 100 nM | 0.1 to 100 nM
COc1ccc(C[C@@H]2NC(=O)[C@H]([C@@H](C)O)NC(=O)[C@@H]3C[C@H](F)CN3C(=O)[C@H](Cc3c[nH]c4ccc(F)cc34)NC(=O)[C@H](Cc3c[nH]c4ccc(F)cc34)NC(=O)[C@@H](C)NC(=O)[C@H](CCCCN)NC(=O)[C@@H](NC(=O)C(C)(C)F)CC(=O)NCCOc3ccc(cc3)C[C@@H](C(N)=O)NC(=O)[C@]3(C)CCCN3C2=O)cc1 [Compound 112] (X28-DK[dA][Trp(5-F)][Trp(5-F)][Pro(cis-4-F)]TY(Me)[αMeP][AEF]-NH2; lactam 1-10) | 0.11 to 100 nM | 100 to 500 nM
